pIC50: −log10 of the molar value.
biological target: T1, hAhR (Homo sapiens, UniProt P35869); test: AhR DRE-luciferase reporter transcriptional assay, antagonist mode (TCDD-induced); format: cell-based; conditions: HEPG2 DRE-Luc cells, 3 nM TCDD, 24 hour incubation, relative IC50
T1 construct: Stably integrated DRE-luciferase cell lines were generated by transducing the both cell lines with Cignal XRE luciferase reporter (Qiagen) lentiviral particles; endogenous in cells
T1 sequence (P35869 11-848): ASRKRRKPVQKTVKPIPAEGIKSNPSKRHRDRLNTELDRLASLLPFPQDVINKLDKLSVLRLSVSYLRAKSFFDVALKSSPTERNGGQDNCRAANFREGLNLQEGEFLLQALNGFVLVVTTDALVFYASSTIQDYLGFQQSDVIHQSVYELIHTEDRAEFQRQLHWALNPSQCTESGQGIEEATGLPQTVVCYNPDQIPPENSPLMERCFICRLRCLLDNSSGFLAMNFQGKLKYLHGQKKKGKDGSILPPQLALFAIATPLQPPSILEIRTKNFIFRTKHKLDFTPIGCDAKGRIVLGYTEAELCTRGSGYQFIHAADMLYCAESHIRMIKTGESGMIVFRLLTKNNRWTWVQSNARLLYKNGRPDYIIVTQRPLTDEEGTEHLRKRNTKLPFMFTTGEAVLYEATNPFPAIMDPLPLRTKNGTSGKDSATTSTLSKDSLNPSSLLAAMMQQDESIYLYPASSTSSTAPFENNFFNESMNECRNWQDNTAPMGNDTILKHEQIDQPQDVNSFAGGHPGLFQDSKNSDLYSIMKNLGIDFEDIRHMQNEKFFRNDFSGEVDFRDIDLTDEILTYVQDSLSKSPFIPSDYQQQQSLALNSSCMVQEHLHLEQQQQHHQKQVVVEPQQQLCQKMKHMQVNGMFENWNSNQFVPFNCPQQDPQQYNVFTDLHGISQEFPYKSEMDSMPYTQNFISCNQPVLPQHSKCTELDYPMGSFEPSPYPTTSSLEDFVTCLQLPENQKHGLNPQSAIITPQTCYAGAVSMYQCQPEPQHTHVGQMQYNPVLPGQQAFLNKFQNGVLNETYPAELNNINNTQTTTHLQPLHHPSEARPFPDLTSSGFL
Outline: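 HepG2 cells carrying a stably integrated DRE-luciferase reporter, in OptiMEM with 0.5% FBS; semi-log compound doses added with 3 nM TCDD, 24 h incubation, firefly luciferase read-out. Percent maximal activity normalised between vehicle ± TCDD; relative IC50 taken as half-reduction between curve plateaus.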

Row | SMILES | pIC50
1 | Cc1cc(C(=O)Nc2ccc(-c3ncc4nc(C(F)(F)F)cc(C)c4n3)cc2C)ccn1 [Example 149, 2-methyl-N-(2-methyl-4-(8-methyl-6-(trifluoromethyl)pyrido[3,2-d]pyrimidin-2-yl)phenyl)isonicotinamide] | > 6.70
2 | Cc1cc(-c2ccc3cc(C(F)(F)F)ccc3n2)ccc1N(C)C(=O)C(F)(F)F [Example 081, 2,2,2-Trifluoro-N-methyl-N-(2-methyl-4-(6-(trifluoromethyl)quinolin-2-yl)phenyl)acetamide] | 5.00 to 6.00
3 | Cc1cc(-c2ncc3cc(C(F)(F)F)ccc3n2)ccc1NC(=O)c1ncncc1C [Example 123, 5-methyl-N-(2-methyl-4-(6-(trifluoromethyl)quinazolin-2-yl)phenyl)pyrimidine-4-carboxamide] | 6.00 to 6.30
4 | Cc1cc(-c2ncc3nc(C(F)(F)F)cc(C)c3n2)ccc1N(C)C(=O)c1cc(C(=O)O)nn1CC(N)=O [Example 195, 1-(2-amino-2-oxoethyl)-5-(methyl(2-methyl-4-(8-methyl-6-(trifluoro-methyl)pyrido[3,2-d]pyrimidin-2-yl)phenyl)carbamoyl)-1H-pyrazole-3-carboxylic acid] | 5.00 to 6.00
5 | Cc1cc(-c2ccc3cccc(F)c3n2)ccc1NC(=O)OC(C)(C)C [Example 022, tert-butyl (4-(8-fluoroquinolin-2-yl)-2-methylphenyl)carbamate] | 5.00 to 6.00
6 | Cc1cc(-c2ncc3cc(C(F)(F)F)ccc3n2)ccc1NC(=O)c1cn(C)nc1C [Example 219, 1,3-dimethyl-N-(2-methyl-4-(6-(trifluoromethyl)quinazolin-2-yl)phenyl)-1H-pyrazole-4-carboxamide] | > 6.70
7 | Cc1cc(-c2ncc3ccc(C(F)(F)F)cc3n2)ccc1NC(=O)c1ccnn1C [Example 108, 1-methyl-N-(2-methyl-4-(7-(trifluoromethyl)quinazolin-2-yl)phenyl)-1H-pyrazole-5-carboxamide] | > 6.70
8 | Cc1cc(-c2ncc3cc(C(F)(F)F)ccc3n2)ccc1N(C)C(=O)c1ncc[nH]1 [Example 132, N-methyl-N-(2-methyl-4-(6-(trifluoromethyl)quinazolin-2-yl)phenyl)-1H-imidazole-2-carboxamide] | > 6.70
9 | Cc1nc(-c2ccc3cc(F)ccc3n2)ccc1NC(=O)c1ccnn1C [Example 045, N-(6-(6-fluoroquinolin-2-yl)-2-methylpyridin-3-yl)-1-methyl-1H-pyrazole-5-carboxamide] | 5.00 to 6.00
10 | Cc1cc(-c2ncc3nc(C(F)(F)F)cc(C)c3n2)ccc1N(C)C(=O)c1cc(C(N)=O)nn1CC(N)=O [Example 196, 1-(2-amino-2-oxoethyl)-N5-methyl-N5-(2-methyl-4-(8-methyl-6-(trifluoromethyl)pyrido[3,2-d]pyrimidin-2-yl)phenyl)-1H-pyrazole-3,5-dicarboxamide] | 5.00 to 6.00
11 | Cn1nccc1C(=O)Nc1ccc(-c2ncc3cc(C(F)(F)F)ccc3n2)cc1 [Example 220, 1-methyl-N-(4-(6-(trifluoromethyl)quinazolin-2-yl)phenyl)-1H-pyrazole-5-carboxamide] | 5.00 to 6.00
12 | Cc1cc(-c2ncc3cc(C(F)(F)F)ccc3n2)ccc1NC(=O)c1ccnn1C [Example 112, 1-methyl-N-(2-methyl-4-(6-(trifluoromethyl)quinazolin-2-yl)phenyl)-1H-pyrazole-5-carboxamide] | > 6.70
13 | Cc1cnccc1C(=O)N(C)c1ccc(-c2ncc3cc(C(F)(F)F)ccc3n2)cc1C [Example 122, N,3-dimethyl-N-(2-methyl-4-(6-(trifluoromethyl)quinazolin-2-yl)phenyl)isonicotinamide] | > 6.70
14 | Cc1cc(-c2ncc3cc(C(F)(F)F)ccc3n2)ccc1N(C)C(=O)c1ccnn1CCN1CCOCC1 [Example 157, N-methyl-N-(2-methyl-4-(6-(trifluoromethyl)quinazolin-2-yl)phenyl)-1-(2-morpholinoethyl)-1H-pyrazole-5-carboxamide] | > 6.70
15 | Cc1cc(-c2ccc3cc([N+](=O)[O-])ccc3n2)ccc1NC(=O)c1ccnn1C [Example 076, 1-methyl-N-(2-methyl-4-(6-nitroquinolin-2-yl)phenyl)-1H-pyrazole-5-carboxamide] | > 6.70
16 | Cc1cc(-c2nc3ccc(C(F)(F)F)cc3s2)ccc1NC(=O)c1ccnn1C [Example 101, 1-methyl-N-(2-methyl-4-(6-(trifluoromethyl)benzo[d]thiazol-2-yl)phenyl)-1H-pyrazole-5-carboxamide] | 6.30 to 6.70

Row | SMILES | pIC50
17 | COc1cc(C(=O)N(C)c2ccc(-c3ncc4cc(C(F)(F)F)ccc4n3)cc2C)ccn1 [Example 143, 2-Methoxy-N-methyl-N-(2-methyl-4-(6-(trifluoromethyl)quinazolin-2-yl)phenyl)isonicotinamide] | > 6.70
18 | Cc1cc(-c2ccc3cc(C(F)(F)F)ccc3n2)cc(F)c1NC(=O)c1ccnn1C [Example 008, N-(2-fluoro-6-methyl-4-(6-(trifluoromethyl)quinolin-2-yl)phenyl)-1-methyl-1H-pyrazole-5-carboxamide] | > 6.70
19 | Cc1cc(-c2ncc3nc(C(F)(F)F)cc(C)c3n2)ccc1N(C)C(=O)c1ccnn1CC(C)O (stereo not shown) [Example 192, 1-(2-hydroxypropyl)-N-methyl-N-(2-methyl-4-(8-methyl-6-(trifluoromethyl)pyrido[3,2-d]pyrimidin-2-yl)phenyl)-1H-pyrazole-5-carboxamide] | > 6.70
20 | Cn1nccc1C(=O)Nc1ccc(-c2ccc3nc(C(F)(F)F)ccc3n2)cc1F [Example 103, N-(2-fluoro-4-(6-(trifluoromethyl)-1,5-naphthyridin-2-yl)phenyl)-1-methyl-1H-pyrazole-5-carboxamide] | > 6.70
21 | Cc1cc(-c2ccc3cc(F)ccc3n2)ccc1NC(=O)c1ccccn1 [Example 026, N-(4-(6-fluoroquinolin-2-yl)-2-methylphenyl)picolinamide] | 6.00 to 6.30
22 | Cc1cc(-c2ccc3ccc(F)cc3n2)ccc1NC(=O)c1ccnn1C [Example 019, N-(4-(7-fluoroquinolin-2-yl)-2-methylphenyl)-1-methyl-1H-pyrazole-5-carboxamide] | 6.30 to 6.70
23 | Cc1cc(-c2ccc3c(ccn3CC(F)(F)F)n2)ccc1NC(=O)c1ccnn1C [Example 084, 1-methyl-N-(2-methyl-4-(1-(2,2,2-trifluoroethyl)-1H-pyrrolo[3,2-b]pyridin-5-yl)phenyl)-1H-pyrazole-5-carboxamide] | 5.00 to 6.00
24 | Cc1cc(-c2ccc3cc(F)ccc3n2)ccc1NC(=O)c1ccnn1C [Example 014, N-(4-(6-fluoroquinolin-2-yl)-2-methylphenyl)-1-methyl-1H-pyrazole-5-carboxamide] | 6.30 to 6.70
25 | CN(C(=O)c1ccnn1C)c1ccc(-c2ncc3cc(C(F)(F)F)ccc3n2)cc1 [Example 218, N,1-dimethyl-N-(4-(6-(trifluoromethyl)quinazolin-2-yl)phenyl)-1H-pyrazole-5-carboxamide] | > 6.70
26 | CNC(=O)c1cc(C(=O)N(C)c2ccc(-c3ncc4nc(C(F)(F)F)cc(C)c4n3)cc2C)ccn1 [Example 169, N2,N4-dimethyl-N4-(2-methyl-4-(8-methyl-6-(trifluoromethyl)pyrido-[3,2-d]pyrimidin-2-yl)phenyl)pyridine-2,4-dicarboxamide] | > 6.70
27 | Cc1cc(NC(=O)c2ccnn2C)ncc1-c1ccc2cc(F)ccc2n1 [Example 043, N-(5-(6-fluoroquinolin-2-yl)-4-methylpyridin-2-yl)-1-methyl-1H-pyrazole-5-carboxamide] | 5.00 to 6.00
28 | Cc1cc(-c2ccc3cc(F)cc(C#N)c3n2)ccc1NC(=O)c1ccnn1C [Example 054, N-(4-(8-cyano-6-fluoroquinolin-2-yl)-2-methylphenyl)-1-methyl-1H-pyrazole-5-carboxamide] | 6.30 to 6.70
29 | Cc1cc(-c2ncc3nc(C(F)(F)F)cc(C)c3n2)ccc1NC(=O)c1ccnn1C [Example 147, 1-methyl-N-(2-methyl-4-(8-methyl-6-(trifluoromethyl)pyrido[3,2-d]pyrimidin-2-yl)phenyl)-1H-pyrazole-5-carboxamide] | > 6.70
30 | Cc1cc(NC(=O)c2c(C)cnn2C)c(F)cc1-c1ccc2cc(C(F)(F)F)ccc2n1 [Example 207, N-(2-fluoro-5-methyl-4-(6-(trifluoromethyl)quinolin-2-yl)phenyl)-1,4-dimethyl-1H-pyrazole-5-carboxamide] | 6.30 to 6.70
31 | Cc1cc(-c2nc(N)c3nc(C(F)(F)F)cc(C)c3n2)ccc1NC(=O)c1ccnn1C [Example 153, N-(4-(4-amino-8-methyl-6-(trifluoromethyl)pyrido[3,2-d]pyrimidin-2-yl)-2-methylphenyl)-1-methyl-1H-pyrazole-5-carboxamide] | > 6.70

— patent publication US20220340875A1, “METHODS OF CULTURING AND/OR EXPANDING STEM CELLS AND/OR LINEAGE COMMITTED PROGENITOR CELLS USING AMIDO COMPOUNDS” (IDEAYA BIOSCIENCES, INC., priority 2018, published 2022)
